In PubChem BioAssay (NCI):
“And” between values parts separate entries of the source, which are not always exact repeats. Equal entries are not always repeated.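 A five-concentration, 48-hour dose response in 96-well plates underlies each endpoint, interpolated linearly between surrounding concentrations. GI50 marks 50% less growth. TGI marks complete inhibition of growth.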

Tests used:
Experiment in all cases: inhibition of tumour cell growth, NCI panel, 48 h
[1] = test system: NCI-H522 lung
[2] = test system: IGROV1 ovarian
[3] = test system: UO-31 renal
[4] = test system: NCI-H23 lung
[5] = test system: COLO 205 colon
[6] = test system: K-562 leukemia
[7] = test system: SF-539 CNS
[8] = test system: CCRF-CEM leukemia
[9] = test system: SF-295 CNS
[10] = test system: HCT-15 colon

SMILES | GI50 [1] | TGI [1] | GI50 [2] | TGI [2] | GI50 [3] | TGI [3] | GI50 [4] | TGI [4] | GI50 [5] | TGI [5] [µM] | GI50 [6] | TGI [6] | GI50 [7] | TGI [7] | GI50 [8] | TGI [8] | GI50 [9] | TGI [9] | GI50 [10] | TGI [10]
N#Cc1c(NC(=O)c2ccccc2F)sc2c1CCCC2 | > 12.8 µM | > 25 µM | > 25 µM | > 25 µM | > 25 µM | > 25 µM | > 25 µM | > 25 µM | 22.2 µM | > 25 | 5.07 µM | > 25 µM | > 25 µM | > 25 µM | > 25 µM | > 25 µM | > 25 µM | > 25 µM | 21.1 µM | > 25 µM
N#CCNC(=O)c1ccc(-c2ccnc(Nc3ccc(N4CCOCC4)cc3)n2)cc1 | 1.22 µM and 0.713 µM | > 10 µM and 21.5 µM | 1.69 µM and 1.24 µM | > 10 µM and 20.3 µM | 1.1 µM and 0.36 µM | 4.19 µM and 3.4 µM | 2.71 µM and 1.87 µM | > 10 µM and 38.4 µM | 3.17 µM and 2.96 µM | > 31.5 | – | > 100 µM | 2.29 µM and 1.14 µM | > 10 µM and 10.4 µM | 2.5 µM and 2.51 µM | > 30 µM | 4.56 µM and 1.94 µM | > 10 µM and 16.6 µM | 3.1 µM and 2.3 µM | > 100 µM
O=[N+]([O-])/C=C/c1ccc(Cl)cc1Cl | – | 29.8 µM | – | 29.4 µM | – | 29.8 µM | – | 42.9 µM | – | 38.9 | – | 9.94 µM | – | 33 µM | – | 20.8 µM | – | 32 µM | – | 46.4 µM
O=C(c1cc(Cc2n[nH]c(=O)c3ccccc23)ccc1F)N1CCN(C(=O)C2CC2)CC1 | > 100 µM | > 100 µM | 56.8 µM and 68.3 µM | > 100 µM | 71.7 µM and 40.7 µM | > 100 µM | 23.6 µM and 40.3 µM | > 100 µM | > 100 µM | > 100 | 54.5 µM and > 66.4 µM | > 100 µM | > 100 µM | > 100 µM | > 100 µM | > 100 µM | – | 23.4 µM and > 100 µM | > 100 µM | > 100 µM
Nc1nc(-c2ccc(Cl)cc2)nc2c1sc(=S)n2-c1ccccc1 | 5.64 µM | > 100 µM | 3.3 µM | 17 µM | 1.84 µM | 4.19 µM | 4.05 µM | 18.2 µM | 7.44 µM | > 100 | 4.75 µM | > 100 µM | 1.62 µM | 3.29 µM | 27 µM | > 100 µM | 2.72 µM | 7.62 µM | 4.92 µM | > 100 µM
C/C(=N\NC(=S)N1CCN(c2ccccn2)CC1)c1ncccn1 | 0.0859 µM | 1.45 µM and 2.06 µM | < 0.0121 µM | 4.31 µM and 16.3 µM | 0.535 µM | 4.58 µM and 13.7 µM | < 0.016 µM | 4.81 µM and 19.3 µM | < 0.0245 µM | – | – | 1.35 µM and 4.46 µM | 0.655 µM | 6.38 µM and 15.9 µM | – | 2.06 µM and 11.4 µM | 0.0934 µM | 5.83 µM and 6.76 µM | 0.013 µM | 5.48 µM and 16.7 µM
Cc1ccc(Cl)cc1-n1c(C)nc2c(cnn2-c2ccnc3c(C(F)(F)F)cccc23)c1=O | > 100 µM | > 100 µM | > 100 µM | > 100 µM | > 100 µM | > 100 µM | > 100 µM | > 100 µM | > 100 µM | > 100 | > 100 µM | > 100 µM | > 100 µM | > 100 µM | > 100 µM | > 100 µM | > 100 µM | > 100 µM | > 100 µM | > 100 µM
COc1cc(C(=O)/C=C/c2c(C(F)(F)F)nc3ccccn23)cc(OC)c1OC | 1.77 µM | 3.91 µM | 2.23 µM | 6.02 µM | 1.49 µM | 3.11 µM | 1.51 µM | 4.01 µM | 2.11 µM | 4.36 | 2.83 µM | > 100 µM | 1.63 µM | 3.22 µM | 4.15 µM | > 100 µM | 1.99 µM | 3.92 µM | 2.1 µM | 7.57 µM
Cn1nc(-c2ccccc2)c(C(=O)/C=C/c2ccc(Cl)cc2)c(N2CCOCC2)c1=O | – | 9.46 µM | – | 16.1 µM | – | 21.7 µM | – | 8.25 µM | – | 3.79 | – | 9.41 µM | – | 7.67 µM | – | 7.1 µM | – | 4.79 µM | – | 13.4 µM
CN(C)CCCn1c2c(c3cc4c(cc3c1=O)OCO4)C(=O)c1ccccc1-2 | 4.59 µM | 35.2 µM | 3.33 µM | 12.6 µM | 4.19 µM | 39.9 µM | 0.231 µM | – | 7.61 µM | > 100 | 0.0793 µM | – | 3.57 µM | 13.4 µM | 0.192 µM | 3.51 µM | 3.12 µM | 12.5 µM | < 0.0275 µM | 4.35 µM
CC(N)CC(=O)O (configuration not stated) | – | > 5000 µM | – | > 5000 µM | – | > 5000 µM | – | > 5000 µM | – | > 5000 | – | > 5000 µM | – | > 5000 µM | – | > 5000 µM | – | > 5000 µM | – | > 5000 µM
COc1ccc(-c2[nH]c3ccccc3c2/C=C(\C#N)S(=O)(=O)c2ccccc2)cc1 | 1.78 µM | – | 3.44 µM | – | 1.88 µM | – | 0.769 µM | > 61.1 µM | 0.253 µM | 0.67 | 0.535 µM | > 100 µM | 0.299 µM | 1.13 µM | 0.807 µM | – | 0.487 µM | – | 0.552 µM | > 48 µM
CC1CCC2(C)C(CC=C(C=O)C2(O)C=O)C12CO2 (configuration not stated) | – | 5.89 µM | – | 7.72 µM | – | 5.69 µM | – | 5.83 µM | – | 4.29 | – | 4.67 µM | – | 4.52 µM | – | 4.01 µM | – | 13.9 µM | – | 5.95 µM
Nc1nc(C(=O)O)c(N=Nc2ccccc2)c(=O)[nH]1 | – | > 100 µM | – | > 100 µM | – | > 100 µM | – | > 100 µM | – | > 100 | – | > 100 µM | – | > 100 µM | – | > 100 µM | – | > 100 µM | – | > 100 µM
Cc1cc(O)c2c3c(ccc2c1)C(=O)c1c(O)cccc1C3=O | – | > 32.3 µM | – | > 20.3 µM | – | > 100 µM | – | > 100 µM | – | 12.4 | – | > 100 µM | – | 50.5 µM | – | > 100 µM | – | > 100 µM | – | > 100 µM
[Cl][Cu][Cl] | > 10 µM | > 10 µM | > 10 µM | > 10 µM | > 10 µM | > 10 µM | > 10 µM | > 10 µM | > 10 µM | > 10 | > 10 µM | > 10 µM | > 10 µM | > 10 µM | > 10 µM | > 10 µM | 3.6 µM | > 10 µM | > 10 µM | > 10 µM
O=C(CO)C1CC2C=CC1C2 (configuration not stated) | – | > 100 µM | – | > 100 µM | – | > 100 µM | – | > 100 µM | – | > 100 | – | > 100 µM | – | > 100 µM | – | > 100 µM | – | > 100 µM | – | > 100 µM
C=C1C=CC2(Br)OC3CC(C)(Cl)C(Br)CC13C2(C)C (configuration not stated) | – | 30.1 µM | – | 92.7 µM | – | 70.5 µM | – | 39.2 µM | – | 30.9 | – | 36.8 µM | – | 38.9 µM | – | 47.5 µM | – | 45.5 µM | – | 51.3 µM
Nc1nc2ccccc2c2c1S(=O)(=O)c1ccc(Cl)cc1C2=O | 0.86 µM | 2.2 µM | 1.7 µM | > 50 µM | 1.21 µM | 9.38 µM | 2.48 µM | > 50 µM | 1.94 µM | 6.85 | 1.45 µM | > 50 µM | 1.3 µM | 3.62 µM | 0.623 µM | 4 µM | 2.22 µM | > 50 µM | 0.812 µM | 2.31 µM
CC(=O)N(O)c1ccc(/C=C/c2ccccc2)cc1 | 3.58 µM | > 41.1 µM | 1.14 µM | 7.41 µM | 0.759 µM | 2.9 µM | 3.6 µM | 36.3 µM | 3.34 µM | 44 | 7.39 µM | > 100 µM | 2.43 µM | 35.1 µM | 0.137 µM | > 100 µM | 0.362 µM | 2.78 µM | 2.9 µM | > 100 µM
c1ccc(CN2COc3c(ccc4c5c(ccc34)CN(Cc3ccccc3)CO5)C2)cc1 | – | > 100 µM | – | > 100 µM | – | > 100 µM | – | > 100 µM | – | > 100 | – | > 100 µM | – | > 100 µM | – | > 100 µM | – | > 100 µM | – | > 100 µM
CC(=O)CC(=O)CCC(=O)Nc1cccc(C(F)(F)F)c1 | – | > 100 µM | – | > 100 µM | – | > 100 µM | – | > 100 µM | – | > 100 | – | > 100 µM | – | > 100 µM | – | > 100 µM | – | > 100 µM | – | > 100 µM
COc1c(CC=C(C)C)c(O)c(C(CC(C)C)c2c(O)c(CC=C(C)C)c(O)c(C(C)=O)c2O)c(O)c1C(C)=O (configuration not stated) | – | 1.48 µM | – | 13.4 µM | – | 11.1 µM | – | 0.877 µM | – | 4.7 | – | 5.71 µM | – | 7.76 µM | – | 1.65 µM | – | 2.28 µM | – | 2.62 µM
COCCOCCOCCOCCOC(=O)OC[n+]1ccc(NC(=NCCCCCCOc2ccc(Cl)cc2)NC#N)cc1 | – | 18.7 µM | 0.465 µM | 24.7 µM | 11.3 µM | 24.1 µM | 4.23 µM | 23.1 µM | 0.231 µM | 15.5 | 4.58 µM | 20.5 µM | < 0.01 µM | 13.7 µM | < 0.01 µM | 15 µM | < 0.0418 µM | 12.5 µM | < 0.01 µM | 17.9 µM
